pIC50: −log10 of the molar value. Read-outs that look alike come from different tables or passages of the source.
Legend:
[1] = system: SW480; experiment: cells; type: cell-based; settings: for Basal_Viability ATP SW480 IC50/EC50: assay number 24
[2] = system: HCT116; experiment: cells; type: cell-based; settings: for pIC50: read-out: Basal_Viability ATP HCT116 summarized IC50
[3] = system: DLD-1; experiment: cells; type: cell-based; settings: for pIC50: read-out: Basal_Viability ATP DLD-1 summarized IC50
[4] = system: HT-29; experiment: cells; type: cell-based; settings: for pIC50: read-out: Basal_Viability ATP HT-29 summarized IC50
[5] = system: RKO; experiment: cells; type: cell-based; settings: for pIC50: read-out: Basal_Viability ATP RKO summarized IC50
[6] = system: SNU-C1; experiment: cells; type: cell-based; settings: for pIC50: read-out: Basal_Viability ATP SNU-C1 summarized IC50
[7] = system: ECFC/ADSC co-culture cell nuclei number; settings: for pIC50: read-out: VEGF_ADSC\ECFC Angio Hoechst NucArea summarized IC50
[8] = system: endothelial tube formation in co-cultures of ECFCs and ADSCs treated with VEGF; experiment: cells; type: cell-based, human; settings: for pIC50: read-out: VEGF_ADSC\ECFC Angio CD31 TubeArea summarized IC50
[9] = system: Colo320; experiment: cells; type: cell-based; settings: for pIC50: read-out: Basal_Viability ATP Colo 320 summarized IC50
[10] = system: HCT116 cells treated with a GSK3β inhibitor; experiment: cells; type: cell-based; settings: for pIC50: read-out: GSK3b inh pretreated_Viability ATP HCT116 summarized IC50
[11] = system: HeLa cells; experiment: cells; type: cell-based
[12] = assay number 26, GSK3b inhibitor pretreated

Compound | Basal_Viability ATP SW480 IC50/EC50 ([1]; basal) [µM] | Basal_Viability ATP DLD-1 IC50/EC50 ([3]; assay number 23, basal) [µM] | Basal_Viability ATP HT-29 IC50/EC50 ([4]; assay number 28, basal) [µM] | Basal_Viability ATP RKO IC50/EC50 ([5]; assay number 29, basal) [µM] | Basal_Viability ATP SNU-C1 IC50/EC50 ([6]; assay number 30, basal) [µM] | VEGF_ADSC\ECFC Angio Hoechst NucArea IC50/EC50 [7] [µM] | VEGF_ADSC\ECFC Angio CD31 TubeArea IC50/EC50 [8] [µM] | Basal_Viability ATP Colo 320 IC50/EC50 ([9]; assay number 27, basal) [µM] | GSK3b inh pretreated_Viability ATP HCT116 IC50/EC50 [10, 12] [µM] | Basal_Viability ATP HCT116 IC50/EC50 ([2]; assay number 25, basal) [µM] | also measured
CN(C)c1ccc(C(=C2C=CC(=[N+](C)C)C=C2)c2ccccc2)cc1 [NCGC00013058-02] | – | – | – | – | – | – | – | – | – | – | pIC50 ([1]; read-out: Basal_Viability ATP SW480 summarized IC50): 8.04; pIC50 [2]: 7.75; pIC50 [3]: 7.66; pIC50 [4]: 8.01; pIC50 [5]: 6.93; pIC50 [6]: 7.45; pIC50 [7]: 5.76; pIC50 [8]: 7.22; pIC50 [9]: 6.79; pIC50 [10]: 8.01
Cc1cccc(Nc2cc(Cl)nc(SCC(=O)O)n2)c1C [NCGC00014702-15] | – | – | – | – | – | – | – | – | – | – | IC50/EC50, Basal_Viability ATP SW480 (assay number 24) ([1]; basal): > 20 µM; IC50/EC50, Basal_Viability ATP HCT116 (assay number 25) ([2]; basal): > 20 µM; IC50/EC50, Basal_Viability ATP DLD-1 (assay number 23) ([3]; basal): > 20 µM; IC50/EC50, Basal_Viability ATP HT-29 (assay number 28) ([4]; basal): > 20 µM; IC50/EC50, Basal_Viability ATP RKO (assay number 29) ([5]; basal): > 20 µM; IC50/EC50, Basal_Viability ATP SNU-C1 (assay number 30) ([6]; basal): > 20 µM; IC50/EC50, VEGF_ADSC\ECFC Angio Hoechst NucArea (assay number 3) [7]: > 10 µM; IC50/EC50, VEGF_ADSC\ECFC Angio CD31 TubeArea (assay number 2) [8]: > 10 µM; IC50/EC50, Basal_Viability ATP Colo 320 (assay number 27) ([9]; basal): > 20 µM; IC50/EC50, GSK3b inh pretreated_Viability ATP HCT116 (assay number 26) ([10]; GSK3b inh pretreated): > 20 µM
CCc1cccc(N(C)C(N)=Nc2cccc3ccccc23)c1.Cl [NCGC00015236-04] | > 20 | > 20 | > 20 | > 20 | > 20 | > 10 | > 10 | > 20 | > 20 | – | –
CN1CCN(C2Cc3ccccc3Sc3ccc(Cl)cc32)CC1.O=C(O)/C=C\C(=O)O (centres unmarked) [NCGC00015759-05] | 6.3146 | > 20 | 8.001 | > 20 | 7.8734 | > 10 | 5.2302 | > 6.6667 | 8.3951 | 9.1662 | –
CCCn1cnc2c1c(=O)n(CCCCC(C)=O)c(=O)n2C [NCGC00015861-09] | > 20 | > 20 | > 20 | > 20 | > 20 | > 10 | > 10 | > 20 | > 20 | > 20 | –
O=C(CCCN1CCC(O)(c2cccc(C(F)(F)F)c2)CC1)c1ccc(F)cc1 [NCGC00015983-04] | > 20 | > 20 | > 20 | > 20 | > 20 | > 10 | > 10 | > 20 | > 20 | > 20 | –
CSc1ccc2c(c1)N(CCC1CCCCN1C)c1ccccc1S2 (centres unmarked) [NCGC00016059-13] | 3.7076 | > 20 | 5.8969 | 5.4868 | 2.905 | 9.242 | > 10 | 7.9244 | 8.1146 | > 20 | –
COc1ccc2c(c1)c1c3n2CCN(C)C3=NCC1 [NCGC00072886-03] | > 20 | > 20 | > 20 | > 20 | > 20 | > 10 | > 10 | > 20 | > 20 | > 20 | –
Cc1ccc2c(Br)cc(Br)c(O)c2n1 [NCGC00160566-02] | – | – | – | – | – | – | – | – | – | – | pIC50 ([2]; assay number 25, basal): 5.94; pIC50 ([3]; assay number 23, basal): 5.32; pIC50 ([4]; assay number 28, basal): < 5.18; pIC50 ([5]; assay number 29, basal): 6.51; pIC50 ([6]; assay number 30, basal): 4.89; pIC50 [7]: < 5.00; pIC50 [8]: < 5.00; pIC50 ([9]; assay number 27, basal): 9.00; pIC50 [10, 12]: 5.99
O=C(NC1CCN(CCc2c[nH]c3ccccc23)CC1)c1ccccc1 [NCGC00165810-02] | > 20 | > 20 | > 20 | > 20 | > 20 | > 10 | > 10 | > 20 | > 20 | – | –
O=Cc1ccc(O)c(O)c1O [NCGC00262933-01] | – | – | – | – | – | – | – | – | – | – | IC50/EC50, Basal_Viability ATP SW480 (assay number 24) [1]: 11.3319 µM; IC50/EC50, Hela CellCycMod PI 2N (assay number 14) [11]: > 10 µM; IC50/EC50, Hela CellCycMod PI 4N (assay number 16) [11]: > 10 µM; IC50/EC50, Hela CellCycMod PI Cell Number (assay number 18) [11]: > 10 µM; IC50/EC50, Hela CellCycMod PI MI (assay number 17) [11]: > 10 µM; IC50/EC50, Hela CellCycMod PI S Phase (assay number 15) [11]: > 10 µM; IC50/EC50, Basal_Viability ATP HCT116 (assay number 25) [2]: > 20 µM; IC50/EC50, Basal_Viability ATP DLD-1 (assay number 23) [3]: > 20 µM; IC50/EC50, Basal_Viability ATP HT-29 (assay number 28) [4]: > 20 µM; IC50/EC50, Basal_Viability ATP RKO (assay number 29) [5]: 6.232 µM; IC50/EC50, Basal_Viability ATP SNU-C1 (assay number 30) [6]: > 20 µM; IC50/EC50, Basal_Viability ATP Colo 320 (assay number 27) [9]: 9.0837 µM; IC50/EC50, GSK3b inh pretreated_Viability ATP HCT116 (assay number 26) [10]: 0.1412 µM
